Measurements published in patent US20130303605A1, “EXTERNAL COMPOSITION FOR SKIN CONTAINING MANASSANTIN B AS ACTIVE INGREDIENT AND THE USE THEREOF FOR SKIN WHITENING” (Amorepacific Corporation, priority 2006, published 2013).

What was measured:
[1] = system: melanophilin and myosin 5a; test: Inhibition of binding between melanophilin and myosin 5a (plate binding, chemiluminescence); conditions: his-GFP-mlphCT on nickel-coated plate, Flag-MyosinVa GT, chemiluminescence (FIG. 2)
Description: Proteins required in the test were produced in large amounts using a suitable system (E. coli) or baculovirus. Herein, the designed proteins essentially included domains known to be required for protein interaction and contained GST, His tag or flag tag such that the produced proteins could be easily purified and isolated. Each of a histidine tagged-GFP-melanophilin recombinant protein and a Flag-MyosinVa recombinant protein, which were to be used as bait proteins, were expressed in a baculovirus system, cells containing the proteins were disrupted, and then extracts were prepared. Flag-MyosinVa GT was prepared into an extract with PBS TG buffer solution, and then purified by flag-affinity chromatography.
The his-GFP-mlphCT protein prepared in the step 1 was bound to a nickel-coated plate through reaction. To the plate, binding partner Flag-MyosinVa GT was bound, and then an M2 antibody recognizing the flag was bound. The plate was subjected to color development reaction by chemiluminescence to measure the degree of binding between the proteins.

[2] = system: melan-a cells and SP-1 cells; test: Inhibition of melanin synthesis in coculture of melanocytes and keratinocytes; type: cell-based, mouse
Protocol: Melanocytes were cultured in the same manner as in the step 1 of Test Example 1. Mouse keratinocytes SP-1 cells were cultured to a confluency of […] in 8% fetal bovine serum-containing s-MEM medium in a 10% CO2 incubator, while the medium was replaced with fresh medium at 3-days intervals.
The melan-a cells and SP-1 cells cultured in the step were separated with 0.25% Trypsin-EDTA and spread together on a 12-well plate at a ratio of 1:10 at cell densities of 1×10^4 cells/well for melan-a and 1×10^5 cells/well for SP-1. Then, the cells were left to stand for 24 hours. The cells were treated with manassantin B at various concentrations, and after 5 days, the cells were collected with 1N NaOH. The collected cells were measured for absorbance at 405 nm and measured for protein concentration using the Lowry method.

[3] = system: melan-a cells; test: Inhibition of melanosome transfer at cell level (optical microscope observation); type: cell-based, mouse; conditions: various concentrations, after 4 days, optical microscope (FIG. 1)
Protocol: Melan-a Cells, Immortalized Mouse Melanocytes, Were cultured to a confluency of 90% in 10% fetal bovine serum-containing RPMI 1640 medium in a 10% CO2 incubator, while the medium was replaced with fresh medium at 3-day intervals.
The melan-a cells cultured in the step 1 were separated using 0.25% trypsin-EDTA and spread on a 6-well plate at a density of 3×10^5 cells/well. Then, the cells were left to stand for 24 hours.

[4] = biological target: T1, tyrosinase (Mus musculus, UniProt P11344); test: Tyrosinase activity inhibition in melanocyte lysate (L-DOPA, absorbance 490 nm); type: biochemical; conditions: melan-a cell lysate, 1 hour with various concentrations, absorbance at 490 nm (FIG. 3)
T1 construct: disrupted with 0.1M phosphate buffer (containing 1% triton x-100); endogenous in cells; host or cells: cultured melanocytes (melan-a), cell lysate supernatant
T1 sequence (P11344 19-533): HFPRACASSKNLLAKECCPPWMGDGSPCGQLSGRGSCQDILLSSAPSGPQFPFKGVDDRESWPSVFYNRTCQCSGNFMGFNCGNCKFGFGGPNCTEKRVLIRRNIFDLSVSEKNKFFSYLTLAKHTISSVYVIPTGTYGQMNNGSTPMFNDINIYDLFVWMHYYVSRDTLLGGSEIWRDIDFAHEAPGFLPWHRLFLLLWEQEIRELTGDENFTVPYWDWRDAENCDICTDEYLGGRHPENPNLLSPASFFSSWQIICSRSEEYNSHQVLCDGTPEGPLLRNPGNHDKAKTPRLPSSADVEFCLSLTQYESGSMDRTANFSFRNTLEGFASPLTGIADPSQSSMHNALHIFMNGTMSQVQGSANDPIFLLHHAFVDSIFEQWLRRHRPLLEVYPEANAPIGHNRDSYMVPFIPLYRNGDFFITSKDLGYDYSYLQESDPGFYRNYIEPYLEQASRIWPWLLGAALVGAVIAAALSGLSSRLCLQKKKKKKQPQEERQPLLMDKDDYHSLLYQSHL
Protocol: Melanocytes were cultured in the same manner as in the step 1 of Test Example 1.
The cells cultured in the step 1 were washed once with cold PBS, and then disrupted with 0.1M phosphate buffer (containing 1% triton x-100). Then, the cells were centrifuged at 1400 rpm for 20 minutes, and the cell supernatant was isolated. 40 μg of the protein thus prepared was mixed with various concentrations of manassantin B and allowed to react for 1 hour. The reaction material was treated with 2 mg/ml of L-DOPA solution and left to stand 37° C.

[5] = system: acyl CoA cholesterol acyltransferase; conditions: Korean Patent Application No. 10-2003-0080397; cited from earlier work

degree of binding between melanophilin and myosin 5a [1]: inhibited the binding
inhibition of tyrosinase activity [4]: did not directly inhibit
SMILES: COc1ccc([C@@H](O)[C@@H](C)Oc2ccc([C@H]3O[C@H](c4ccc(O[C@H](C)[C@H](O)c5ccc6c(c5)OCO6)c(OC)c4)[C@H](C)[C@H]3C)cc2OC)cc1OC [manassantin B]
inhibition at 0.02 ppm ([2]; Mus musculus, 120 h, coculture melan-a:SP-1 1:10, 5 days, manassantin B concentration of 0.02 ppm): ~50%
inhibition of melanin synthesis ([2]; coculture melan-a:SP-1 1:10, various concentrations, 5 days (FIG. 4)): inhibited melanin synthesis in a concentration-dependent manner
configuration of the cells / distribution (transfer) of melanosomes [3]: melanosomes were gathered together around the nuclei
inhibition of activity of acyl CoA cholesterol acyltransferase [5]: inhibit the activity of acyl CoA cholesterol acyltransferase
